# Experimental data taken from patent publication US20230399319A1, “Acylsulfamide Compound and Pharmaceutical Use Therefor” (Japan Tobacco Inc., priority 2019, published 2023).
# Like-named read-outs stand apart in the source and are kept apart here.
# Target: NLRP3 inflammasome (Homo sapiens (Human), UniProt Q96P20)
# Assay: Evaluation of NLRP3 inflammasome inhibitory activity (inhibition of IL-1β production in THP1-Null cells, LPS/Nigericin)
# Conditions: for inhibition at 3 µM: read-out: % inhibition at 3 μM
# [1] = inhibition of IL-1β production in THP1-Null cells
# [2] = IL-1β production in THP1-Null cells, PMA/LPS primed, Nigericin 7.5 μmol/L
# Chain of NLRP3 inflammasome (Q96P20 whole entry): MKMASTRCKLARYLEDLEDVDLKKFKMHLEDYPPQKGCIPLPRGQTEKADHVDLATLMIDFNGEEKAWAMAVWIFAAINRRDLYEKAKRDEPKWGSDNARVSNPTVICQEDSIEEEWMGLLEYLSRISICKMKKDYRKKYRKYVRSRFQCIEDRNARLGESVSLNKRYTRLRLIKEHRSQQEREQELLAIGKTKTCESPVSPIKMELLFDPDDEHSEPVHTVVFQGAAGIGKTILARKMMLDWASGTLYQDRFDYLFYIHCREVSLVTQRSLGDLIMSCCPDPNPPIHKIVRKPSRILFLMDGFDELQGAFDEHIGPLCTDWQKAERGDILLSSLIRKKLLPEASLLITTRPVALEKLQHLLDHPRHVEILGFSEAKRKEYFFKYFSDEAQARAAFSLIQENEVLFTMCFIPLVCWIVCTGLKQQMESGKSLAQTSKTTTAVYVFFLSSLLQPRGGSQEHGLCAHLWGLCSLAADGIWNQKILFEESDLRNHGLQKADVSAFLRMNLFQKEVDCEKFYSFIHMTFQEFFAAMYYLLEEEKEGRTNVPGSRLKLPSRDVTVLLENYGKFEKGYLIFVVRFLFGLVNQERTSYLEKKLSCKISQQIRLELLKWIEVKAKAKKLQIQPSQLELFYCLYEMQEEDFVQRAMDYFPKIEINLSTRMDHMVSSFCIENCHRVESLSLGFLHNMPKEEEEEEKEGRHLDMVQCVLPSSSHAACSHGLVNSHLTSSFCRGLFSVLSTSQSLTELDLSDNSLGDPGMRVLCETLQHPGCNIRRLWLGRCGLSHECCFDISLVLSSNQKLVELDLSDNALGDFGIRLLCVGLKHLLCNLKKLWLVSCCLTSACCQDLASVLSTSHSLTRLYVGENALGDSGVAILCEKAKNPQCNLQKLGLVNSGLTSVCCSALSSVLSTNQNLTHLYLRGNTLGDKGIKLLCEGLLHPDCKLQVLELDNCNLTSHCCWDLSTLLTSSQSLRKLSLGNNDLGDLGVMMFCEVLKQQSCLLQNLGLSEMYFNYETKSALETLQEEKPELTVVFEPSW
IC50 [1],IC50 [2],Structure (SMILES),also measured
27 nM,,CCCS(=O)(=O)N1CCCN(S(=O)(=O)NC(=O)c2coc(Nc3cc(C(F)F)ccc3C(C)C)n2)CC1 [Example 2-224],
36 nM,,CCCCS(=O)(=O)N1CCCN(S(=O)(=O)NC(=O)c2coc(Nc3cc(C(F)F)ccc3C(C)C)n2)CC1 [Example 2-225],
1500 nM,,Cc1c(Nc2nc(C(=O)NS(=O)(=O)N3CCCOCC3)co2)c(C(C)C)nn1C(C)C [Example 2-227],
28 nM,,CCCS(=O)(=O)N1CCCN(S(=O)(=O)NC(=O)c2coc(Nc3cc(C)ccc3C)n2)CC1 [Example 2-228],
,,COCCCc1cc(C)c(Nc2nc(C(=O)NS(=O)(=O)N(C)C)co2)cc1C(C)C [Example 2-238],inhibition at 3 µM: 11%
73 nM,,Cc1ccc(C(F)(F)F)cc1Nc1nc(C(=O)NS(=O)(=O)N2CCCN(c3cnccn3)CC2)co1 [Example 2-245],
,,CC(C)c1nn2c(c1Nc1nc(C(=O)NS(=O)(=O)N3CCCOCC3)co1)OCCC2C (stereo not shown) [Example 2-248],inhibition at 3 µM: 44%
64 nM,,Cc1ccc(C(F)(F)F)cc1Nc1nc(C(=O)NS(=O)(=O)N2CCCn3nccc3C2)co1 [Example 2-254],
15 nM,,CCCS(=O)(=O)N1CCCN(S(=O)(=O)NC(=O)c2coc(Nc3cc(CC)ccc3C)n2)CC1 [Example 2-256],
22 nM,,CCCS(=O)(=O)N1CCCN(S(=O)(=O)NC(=O)c2coc(Nc3cc(C)ccc3CC)n2)CC1 [Example 2-257],
18 nM,,CCCS(=O)(=O)N1CCCN(S(=O)(=O)NC(=O)c2coc(Nc3cc(CC)ccc3CC)n2)CC1 [Example 2-258],
79 nM,,Cc1ccc(C(F)(F)F)cc1Nc1nc(C(=O)NS(=O)(=O)N2CCOC(C(=O)N(C)C)CC2)co1 (stereo not shown) [Example 2-263],
38 nM,,Cc1ccc(C(F)(F)F)cc1Nc1nc(C(=O)NS(=O)(=O)N2CCOC(C#N)CC2)co1 (stereo not shown) [Example 2-264],
350 nM,,CCCS(=O)(=O)N1CCCN(S(=O)(=O)NC(=O)c2coc(Nc3ccccc3C)n2)CC1 [Example 2-269],
9.8 nM,,CCCS(=O)(=O)N1CCCN(S(=O)(=O)NC(=O)c2coc(Nc3cc(C(F)F)ccc3C)n2)CC1 [Example 2-270],
940 nM,,CCCS(=O)(=O)N1CCCN(S(=O)(=O)NC(=O)c2coc(Nc3cccc4ocnc34)n2)CC1 [Example 2-271],
27 nM,,Cc1ccc(C(F)(F)F)cc1Nc1nc(C(=O)NS(=O)(=O)N2CCOC(CO)CC2)co1 (stereo not shown) [Example 2-272],
160 nM,,Cc1ccc(C)c(Nc2nc(C(=O)NS(=O)(=O)N3CCCN(c4ncccn4)CC3)co2)c1 [Example 2-275],
120 nM,,CCCS(=O)(=O)N1CCCN(S(=O)(=O)NC(=O)c2coc(Nc3cc(C)cc(C)c3C)n2)CC1 [Example 2-288],
46 nM,,CCCS(=O)(=O)N1CCCN(S(=O)(=O)NC(=O)c2coc(Nc3cc(C)c(C)cc3C)n2)CC1 [Example 2-289],
73 nM,,CCCS(=O)(=O)N1CCCN(S(=O)(=O)NC(=O)c2coc(Nc3cc(Cl)ccc3C)n2)CC1 [Example 2-291],
34 nM,,CCCS(=O)(=O)N1CCCN(S(=O)(=O)NC(=O)c2coc(Nc3cc(Br)ccc3C)n2)CC1 [Example 2-292],
30 nM,,COCC1CCN(S(=O)(=O)NC(=O)c2coc(Nc3cc(C(C)C)ccc3C)n2)CCO1 (stereo not shown) [Example 2-295],
67 nM,,Cc1cnn(C2CCCN(S(=O)(=O)NC(=O)c3coc(Nc4cc(C(F)(F)F)ccc4C)n3)CC2)c1 (stereo not shown) [Example 2-298],
190 nM,,COCC1CCN(S(=O)(=O)NC(=O)c2coc(Nc3cc(C)ccc3C)n2)CCO1 (stereo not shown) [Example 2-299],

IC50 [1],IC50 [2],Structure (SMILES),also measured
11 nM,,CCOCC1CCN(S(=O)(=O)NC(=O)c2coc(Nc3cc(C(F)(F)F)ccc3C)n2)CCO1 (stereo not shown) [Example 2-301],
49 nM,,CCOCC1CCN(S(=O)(=O)NC(=O)c2coc(Nc3cc(C)ccc3C)n2)CCO1 (stereo not shown) [Example 2-305],
,,CCCS(=O)(=O)C1CCCN(S(=O)(=O)NC(=O)c2coc(Nc3cc(C(F)(F)F)ccc3C)n2)CC1 (stereo not shown) [Example 2-306],IC50: 9.8 nM
82 nM,,Cc1ccc(C(C)C)c(Nc2nc(C(=O)NS(=O)(=O)N3CCCOCC3)co2)c1 [Example 2-308],
39 nM,,COCC1CCN(S(=O)(=O)NC(=O)c2coc(Nc3cc(C)ccc3C(C)C)n2)CCO1 (stereo not shown) [Example 2-309],
140 nM,,Cc1ccc(C(F)(F)F)cc1Nc1nc(C(=O)NS(=O)(=O)N2CCCC(c3ncccn3)[C@@H](C)C2)co1 (stereo partly shown) [Example 2-312],
,,CCCN1CCN(S(=O)(=O)NC(=O)c2coc(Nc3cc(C(F)(F)F)ccc3C)n2)CCC1=O [Example 2-320],IC50: 600 nM
,,Cc1ccc(C)c(Nc2nc(C(=O)NS(=O)(=O)N3CCC[C@H]3CN3CCCC3)co2)c1 [Example 2-321],inhibition at 3 µM: -11%
17 nM,,Cc1ccc(C(F)(F)F)cc1Nc1nc(C(=O)NS(=O)(=O)N2CCOC(COC(F)F)CC2)co1 (stereo not shown) [Example 2-324],
25 nM,,CCOCC1CCN(S(=O)(=O)NC(=O)c2coc(Nc3cc(C(C)C)ccc3C)n2)CCO1 (stereo not shown) [Example 2-325],
26 nM,,Cc1ccc(C(C)C)cc1Nc1nc(C(=O)NS(=O)(=O)N2CCOC(COC(F)F)CC2)co1 (stereo not shown) [Example 2-326],
29 nM,,COCC1CCN(S(=O)(=O)NC(=O)c2coc(Nc3cc(C(F)F)ccc3C)n2)CCO1 (stereo not shown) [Example 2-327],
30 nM,,Cc1ccc(C(F)F)cc1Nc1nc(C(=O)NS(=O)(=O)N2CCOC(COC(F)F)CC2)co1 (stereo not shown) [Example 2-328],
22 nM,,CCOCC1CCN(S(=O)(=O)NC(=O)c2coc(Nc3cc(C(F)F)ccc3C)n2)CCO1 (stereo not shown) [Example 2-332],
78 nM,,CCOCC1CCN(S(=O)(=O)NC(=O)c2coc(Nc3nn(C(C)C)cc3C)n2)CCO1 (stereo not shown) [Example 2-333],
65 nM,,CCOCC1CCN(S(=O)(=O)NC(=O)c2coc(Nc3nn(C(C)C)cc3C(C)C)n2)CCO1 (stereo not shown) [Example 2-344],
71 nM,,COCCOCC1CCN(S(=O)(=O)NC(=O)c2coc(Nc3cc(C)ccc3C)n2)CCO1 (stereo not shown) [Example 2-345],
,< 30 nM,O=C(NS(=O)(=O)N1CCOCC1)c1cnc(Nc2c3c(cc4c2CCC4)CCC3)o1 [Example 2],
,21 nM,Cc1cc(Nc2nc(C(=O)NS(=O)(=O)N3CCOC(COC(C)C)CC3)co2)c(C)cc1F (stereo not shown) [Example 3-003],
,26 nM,Cc1cc(Nc2nc(C(=O)NS(=O)(=O)N3CCOC(CS(=O)(=O)C(C)C)CC3)co2)c(C)cc1F (stereo not shown) [Example 3-004],
,40 nM,"COCCOC[C@@H]1CCN(S(=O)(=O)NC(=O)c2coc(Nc3cc(C)c(F)cc3C)n2)CCO1 [Example 3-005, (S)-2-((4-fluoro-2,5-dimethylphenyl)amino)-N-((7-((2-methoxyethoxy)methyl)-1,4-oxazepan-4-yl)sulfonyl)oxazole-4-carboxamide]",
,91 nM,O=C(NS(=O)(=O)N1CCCCC1)c1cnc(Nc2c3c(cc4c2CCC4)CCC3)o1 [Example 3],
,81 nM,O=C(NS(=O)(=O)N1CCCOCC1)c1cnc(Nc2c3c(cc4c2CCC4)CCC3)o1 [Example 4],
,< 30 nM,O=C(NS(=O)(=O)N1CCCC1)c1cnc(Nc2c3c(cc4c2CCC4)CCC3)o1 [Example 6],
,200 nM,CC(C)NS(=O)(=O)NC(=O)c1cnc(Nc2c3c(cc4c2CCC4)CCC3)o1 [Example 7],

IC50 [1],IC50 [2],Structure (SMILES),also measured
,440 nM,O=C(NS(=O)(=O)NCc1ccccc1)c1cnc(Nc2c3c(cc4c2CCC4)CCC3)o1 [Example 8],
,210 nM,O=C(NS(=O)(=O)N1CCOCC12CCC2)c1cnc(Nc2c3c(cc4c2CCC4)CCC3)o1 [Example 9],
,48 nM,CN(C)S(=O)(=O)NC(=O)c1coc(Nc2c3c(cc4c2CCC4)CCC3)n1 [Example 13],
,97 nM,CN(C)S(=O)(=O)NC(=O)c1cnc(Nc2c3c(c(Cl)c4c2CCC4)CCC3)o1 [Example 14],
,< 30 nM,CC(C)N(C)S(=O)(=O)NC(=O)c1cnc(Nc2c3c(cc4c2CCC4)CCC3)o1 [Example 15],
,830 nM,COC1CN(S(=O)(=O)NC(=O)c2cnc(Nc3c4c(cc5c3CCC5)CCC4)o2)C1 [Example 17],
,5400 nM,Cn1cc(N(C2CCOCC2)S(=O)(=O)NC(=O)c2cnc(Nc3c4c(cc5c3CCC5)CCC4)o2)cn1 [Example 18],
,5700 nM,CN(C)S(=O)(=O)NC(=O)c1cnc(Nc2cccc3c2CCC3)o1 [Example 19],
,,CC(C)c1cccc(C(C)C)c1Nc1ncc(C(=O)NS(=O)(=O)N(C)C)o1 [Example 20],inhibition at 30 µM (read-out: Inhibition at 30 μM): 48%
,43 nM,CC(C)N(C)S(=O)(=O)NC(=O)c1coc(Nc2c3c(cc4c2CCC4)CCC3)n1 [Example 21],
,< 30 nM,O=C(NS(=O)(=O)N1CCCC1)c1coc(Nc2c3c(cc4c2CCC4)CCC3)n1 [Example 22],
,130 nM,CN(C)S(=O)(=O)NC(=O)c1cnc(Nc2c3c(c(F)c4c2CCC4)CCC3)o1 [Example 26],
,58 nM,CN(C)S(=O)(=O)NC(=O)c1coc(Nc2c3c(c(F)c4c2CCC4)CCC3)n1 [Example 27],
,120 nM,CN(C)S(=O)(=O)NC(=O)c1coc(Nc2c3c(c(Cl)c4c2CCC4)CCC3)n1 [Example 28],
,310 nM,Cc1ccc2c(c1Nc1nc(C(=O)NS(=O)(=O)N3CCCC3)co1)CCC2 [Example 31],
,150 nM,Cc1ccc2c(c1Nc1nc(C(=O)NS(=O)(=O)N3CCOCC3)co1)CCC2 [Example 32],
,48 nM,O=C(NS(=O)(=O)N1CCCC1)c1coc(Nc2c3c(c(Cl)c4c2CCC4)CCC3)n1 [Example 34],
,< 30 nM,O=C(NS(=O)(=O)N1CCCC1)c1coc(Nc2c3c(c(F)c4c2CCC4)CCC3)n1 [Example 35],
,92 nM,CO[C@@H]1CCN(S(=O)(=O)NC(=O)c2coc(Nc3c4c(c(Cl)c5c3CCC5)CCC4)n2)C1 [Example 36],
,< 30 nM,O=C(NS(=O)(=O)N1CCOCC1)c1coc(Nc2c3c(c(Cl)c4c2CCC4)CCC3)n1 [Example 37],
,220 nM,COCCN(C(C)C)S(=O)(=O)NC(=O)c1coc(Nc2c3c(c(Cl)c4c2CCC4)CCC3)n1 [Example 39],
,970 nM,O=C(NS(=O)(=O)N1CCS(=O)(=O)CC1)c1coc(Nc2c3c(c(Cl)c4c2CCC4)CCC3)n1 [Example 42],
,< 30 nM,CS(=O)(=O)C1CCN(S(=O)(=O)NC(=O)c2coc(Nc3c4c(c(Cl)c5c3CCC5)CCC4)n2)CC1 [Example 43],
